Experimental data from ChEMBL document CHEMBL3526141, “Characterization of human liver enzymes involved in the biotransformation of boceprevir, a hepatitis C virus protease inhibitor” (Drug Metab Dispos, 2011).

Tests used:
Liver cytosol [1] = test: (§1) Drug metabolism in human liver cytosol assessed as (1R,2S,5S)-N-((2R,3R)-4-amino-1-cyclobutyl-3-hydroxy-4-oxobutan-2-yl)-3-((S)-2-(3-tert-butylureido)-3,3-dimethylbutanoyl)-6,6-dimethyl-3-azabicyclo[3.1.0]hexane-2-carboxamide formation per mg protein after 60 mins by LC-MS/MS/FSA method; assay type: ADME, tissue-based; settings: 1 h
Liver cytosol [2] = test: as §1, with “Ratio of Vmax to Km for drug” for “Drug”; assay type: ADME; settings: 1 h
Liver cytosol [3] = test: Drug metabolism in human liver cytosol assessed as (1R,2S,5S)-N-((2S,3R)-4-amino-1-cyclobutyl-3-hydroxy-4-oxobutan-2-yl)-3-((S)-2-(3-tert-butylureido)-3,3-dimethylbutanoyl)-6,6-dimethyl-3-azabicyclo[3.1.0]hexane-2-carboxamide formation after 60 mins by LC-MS/MS/FSA method; assay type: ADME, tissue-based; settings: 1 h
Liver cytosol [4] = test: Drug metabolism in human liver cytosol assessed as (1R,2S,5S)-N-((2R,3R)-4-amino-1-cyclobutyl-3-hydroxy-4-oxobutan-2-yl)-3-((S)-2-(3-tert-butylureido)-3,3-dimethylbutanoyl)-6,6-dimethyl-3-azabicyclo[3.1.0]hexane-2-carboxamide formation after 60 mins by LC-MS/MS/FSA method; assay type: ADME, tissue-based; settings: 1 h
Liver cytosol [5] = test: Ratio of Vmax to Km for drug metabolism in human liver cytosol assessed as (1R,2S,5S)-N-((2S,3R)-4-amino-1-cyclobutyl-3-hydroxy-4-oxobutan-2-yl)-3-((S)-2-(3-tert-butylureido)-3,3-dimethylbutanoyl)-6,6-dimethyl-3-azabicyclo[3.1.0]hexane-2-carboxamide formation per mg protein after 60 mins by LC-MS/MS/FSA method; assay type: ADME; settings: 1 h
Liver cytosol [6] = test: Drug metabolism in human liver cytosol assessed as (1R,2S,5S)-N-((2S,3R)-4-amino-1-cyclobutyl-3-hydroxy-4-oxobutan-2-yl)-3-((S)-2-(3-tert-butylureido)-3,3-dimethylbutanoyl)-6,6-dimethyl-3-azabicyclo[3.1.0]hexane-2-carboxamide formation per mg protein after 60 mins by LC-MS/MS/FSA method; assay type: ADME, tissue-based; settings: 1 h
Cytochrome P450 2B6 = molecular target: T1, Cytochrome P450 2B6 (Homo sapiens, UniProt P20813); test: Drug metabolism assessed as human CYP2B6-mediated compound formation from 5 uM [14C]boceprevir after 120 mins by LC-MS/FSA method relative to total [14C]boceprevir; assay type: ADME; settings: recombinant enzyme, 2 h
T1 sequence (P20813 whole entry): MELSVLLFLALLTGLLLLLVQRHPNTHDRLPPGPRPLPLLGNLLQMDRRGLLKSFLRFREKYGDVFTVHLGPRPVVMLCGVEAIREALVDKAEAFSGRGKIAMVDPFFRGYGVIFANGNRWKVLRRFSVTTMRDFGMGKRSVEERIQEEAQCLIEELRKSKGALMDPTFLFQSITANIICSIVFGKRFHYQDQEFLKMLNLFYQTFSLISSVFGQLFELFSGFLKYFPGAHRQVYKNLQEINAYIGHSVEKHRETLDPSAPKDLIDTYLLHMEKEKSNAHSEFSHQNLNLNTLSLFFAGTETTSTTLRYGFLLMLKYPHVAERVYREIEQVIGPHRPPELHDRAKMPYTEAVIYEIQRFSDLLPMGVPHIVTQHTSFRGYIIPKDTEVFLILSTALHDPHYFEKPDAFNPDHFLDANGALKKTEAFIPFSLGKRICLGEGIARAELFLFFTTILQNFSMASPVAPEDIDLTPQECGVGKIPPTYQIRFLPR

Liver microsome [7] = test: Drug metabolism in human liver microsomes treated with 5 uM [14C]boceprevir assessed as compound formation by LC-MS/FSA method relative to total [14C]boceprevir; assay type: ADME
Cytochrome P450 3A5 [8] = molecular target: T2, Cytochrome P450 3A5 (Homo sapiens, UniProt P20815); test: Drug metabolism assessed as human CYP3A5-mediated compound formation from 5 uM [14C]boceprevir after 120 mins by LC-MS/FSA method relative to total [14C]boceprevir; assay type: ADME; settings: recombinant enzyme, 2 h
T2 sequence (P20815 whole entry): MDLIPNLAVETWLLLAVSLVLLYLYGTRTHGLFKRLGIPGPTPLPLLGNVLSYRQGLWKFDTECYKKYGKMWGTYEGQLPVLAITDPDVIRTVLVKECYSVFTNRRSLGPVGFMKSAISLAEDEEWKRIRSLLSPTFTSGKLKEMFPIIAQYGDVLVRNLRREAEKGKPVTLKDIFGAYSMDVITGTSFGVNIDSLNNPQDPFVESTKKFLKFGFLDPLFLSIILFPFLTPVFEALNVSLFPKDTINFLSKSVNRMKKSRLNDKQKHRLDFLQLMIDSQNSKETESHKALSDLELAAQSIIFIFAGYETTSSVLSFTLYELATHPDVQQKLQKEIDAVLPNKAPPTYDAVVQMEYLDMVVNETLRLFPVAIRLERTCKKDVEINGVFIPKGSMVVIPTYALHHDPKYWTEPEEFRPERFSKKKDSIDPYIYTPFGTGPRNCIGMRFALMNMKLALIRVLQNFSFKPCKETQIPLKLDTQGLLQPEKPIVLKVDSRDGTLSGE

Cytochrome P450 3A4 [9] = molecular target: T3, Cytochrome P450 3A4 (Homo sapiens, UniProt P08684); test: Drug metabolism assessed as human CYP3A4-mediated compound formation from 5 uM [14C]boceprevir after 120 mins by LC-MS/FSA method relative to total [14C]boceprevir; assay type: ADME; settings: recombinant enzyme, 2 h, BLD = below limit of detection
T3 sequence (P08684 whole entry): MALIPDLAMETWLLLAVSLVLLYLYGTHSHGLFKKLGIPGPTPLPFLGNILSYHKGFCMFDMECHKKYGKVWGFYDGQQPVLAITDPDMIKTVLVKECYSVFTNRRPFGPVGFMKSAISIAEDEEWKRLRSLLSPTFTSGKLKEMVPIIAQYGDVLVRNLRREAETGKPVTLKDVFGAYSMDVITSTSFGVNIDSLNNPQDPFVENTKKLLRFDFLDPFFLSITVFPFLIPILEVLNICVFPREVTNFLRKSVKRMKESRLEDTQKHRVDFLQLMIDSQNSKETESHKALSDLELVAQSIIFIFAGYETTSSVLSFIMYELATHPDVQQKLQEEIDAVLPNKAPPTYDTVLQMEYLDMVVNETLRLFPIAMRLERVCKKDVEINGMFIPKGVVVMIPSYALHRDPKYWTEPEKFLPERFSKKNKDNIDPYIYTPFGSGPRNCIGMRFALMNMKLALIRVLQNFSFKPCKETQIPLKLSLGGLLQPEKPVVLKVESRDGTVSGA

Cytochrome P450 4F3 = molecular target: T4, Cytochrome P450 4F3 (Homo sapiens, UniProt Q08477); test: Drug metabolism assessed as human CYP4F3A-mediated compound formation from 5 uM [14C]boceprevir after 120 mins by LC-MS/FSA method relative to total [14C]boceprevir; assay type: ADME; settings: recombinant enzyme, 2 h
T4 sequence (Q08477 whole entry): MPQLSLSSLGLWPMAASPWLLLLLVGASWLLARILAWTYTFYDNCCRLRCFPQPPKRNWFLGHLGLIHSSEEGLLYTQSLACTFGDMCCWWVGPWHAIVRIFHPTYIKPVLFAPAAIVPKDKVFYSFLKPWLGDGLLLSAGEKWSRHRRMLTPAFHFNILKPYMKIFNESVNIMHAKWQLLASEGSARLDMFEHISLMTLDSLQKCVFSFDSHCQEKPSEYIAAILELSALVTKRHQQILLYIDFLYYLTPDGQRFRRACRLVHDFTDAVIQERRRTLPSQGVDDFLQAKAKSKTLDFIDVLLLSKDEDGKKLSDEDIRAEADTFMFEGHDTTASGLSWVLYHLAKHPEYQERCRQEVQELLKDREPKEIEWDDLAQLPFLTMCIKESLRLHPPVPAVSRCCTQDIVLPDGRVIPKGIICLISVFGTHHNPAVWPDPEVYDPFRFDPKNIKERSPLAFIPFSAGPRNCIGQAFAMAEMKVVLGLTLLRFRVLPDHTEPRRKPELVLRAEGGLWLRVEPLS

Cytochrome P450 3A5 [10] = molecular target: T2, Cytochrome P450 3A5; test: Drug metabolism assessed as human CYP3A5-mediated compound formation from 20 uM [14C]boceprevir after 120 mins by LC-MS/FSA method relative to total [14C]boceprevir; assay type: ADME; settings: recombinant enzyme, 2 h
Cytochrome P450 3A4 [11] = molecular target: T3, Cytochrome P450 3A4; test: Drug metabolism assessed as human CYP3A4-mediated compound formation from 20 uM [14C]boceprevir after 120 mins by LC-MS/FSA method relative to total [14C]boceprevir; assay type: ADME; settings: recombinant enzyme, 2 h
Liver microsome [12] = test: Drug metabolism in human liver microsomes treated with 20 uM [14C]boceprevir assessed as compound formation by LC-MS/FSA method relative to total [14C]boceprevir; assay type: ADME
Plasma = test: Drug metabolism in human plasma treated with [14C]boceprevir assessed as ratio of drug level by LC-MS/MS method relative to boceprevir; assay type: ADME, cell-free
Cytochrome P450 2C19 = Cytochrome P450 2C19 (Homo sapiens, UniProt P33261); test: Drug metabolism assessed as human CYP2C19-mediated compound formation from 5 uM [14C]boceprevir after 120 mins by LC-MS/FSA method relative to total [14C]boceprevir; assay type: ADME; settings: recombinant enzyme, 2 h
Chain of Cytochrome P450 2C19 (P33261 whole entry): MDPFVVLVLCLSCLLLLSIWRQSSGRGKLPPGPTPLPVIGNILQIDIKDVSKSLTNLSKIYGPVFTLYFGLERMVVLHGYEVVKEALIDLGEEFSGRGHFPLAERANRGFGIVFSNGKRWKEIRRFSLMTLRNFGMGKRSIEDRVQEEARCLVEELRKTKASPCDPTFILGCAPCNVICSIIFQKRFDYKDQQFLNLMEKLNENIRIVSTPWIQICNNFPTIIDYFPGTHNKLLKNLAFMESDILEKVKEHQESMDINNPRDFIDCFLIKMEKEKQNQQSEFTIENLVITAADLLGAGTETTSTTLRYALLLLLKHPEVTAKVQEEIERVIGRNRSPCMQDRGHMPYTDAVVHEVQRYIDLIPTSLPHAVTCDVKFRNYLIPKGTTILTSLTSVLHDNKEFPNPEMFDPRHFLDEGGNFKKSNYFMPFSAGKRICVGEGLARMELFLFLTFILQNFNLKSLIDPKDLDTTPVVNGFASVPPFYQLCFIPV

Cytochrome P450 2D6 = Cytochrome P450 2D6 (Homo sapiens, UniProt P10635); test: Drug metabolism assessed as human CYP2D6-mediated compound formation from 5 uM [14C]boceprevir after 120 mins by LC-MS/FSA method relative to total [14C]boceprevir; assay type: ADME; settings: recombinant enzyme, 2 h
Chain of Cytochrome P450 2D6 (P10635 whole entry): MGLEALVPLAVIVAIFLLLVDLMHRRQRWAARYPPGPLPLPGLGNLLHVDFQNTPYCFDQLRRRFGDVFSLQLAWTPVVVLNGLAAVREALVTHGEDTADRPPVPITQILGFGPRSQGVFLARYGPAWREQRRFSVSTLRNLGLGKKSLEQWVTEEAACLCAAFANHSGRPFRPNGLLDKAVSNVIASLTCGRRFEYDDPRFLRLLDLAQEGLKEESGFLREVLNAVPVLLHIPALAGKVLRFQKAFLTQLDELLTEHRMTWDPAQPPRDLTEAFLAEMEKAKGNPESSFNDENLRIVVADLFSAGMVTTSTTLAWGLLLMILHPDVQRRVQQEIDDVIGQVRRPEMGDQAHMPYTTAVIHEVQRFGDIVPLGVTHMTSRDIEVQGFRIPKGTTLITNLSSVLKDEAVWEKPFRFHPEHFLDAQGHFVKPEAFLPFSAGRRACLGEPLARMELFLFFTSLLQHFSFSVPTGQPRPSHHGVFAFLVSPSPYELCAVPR

Cytochrome P450 1A2 = molecular target: T5, Cytochrome P450 1A2 (Homo sapiens, UniProt P05177); test: (§2) Drug metabolism assessed as human […]-mediated compound formation from 5 uM [14C]boceprevir after 120 mins by LC-MS/FSA method relative to total [14C]boceprevir; assay type: ADME; settings: recombinant enzyme, 2 h
T5 sequence (P05177 whole entry): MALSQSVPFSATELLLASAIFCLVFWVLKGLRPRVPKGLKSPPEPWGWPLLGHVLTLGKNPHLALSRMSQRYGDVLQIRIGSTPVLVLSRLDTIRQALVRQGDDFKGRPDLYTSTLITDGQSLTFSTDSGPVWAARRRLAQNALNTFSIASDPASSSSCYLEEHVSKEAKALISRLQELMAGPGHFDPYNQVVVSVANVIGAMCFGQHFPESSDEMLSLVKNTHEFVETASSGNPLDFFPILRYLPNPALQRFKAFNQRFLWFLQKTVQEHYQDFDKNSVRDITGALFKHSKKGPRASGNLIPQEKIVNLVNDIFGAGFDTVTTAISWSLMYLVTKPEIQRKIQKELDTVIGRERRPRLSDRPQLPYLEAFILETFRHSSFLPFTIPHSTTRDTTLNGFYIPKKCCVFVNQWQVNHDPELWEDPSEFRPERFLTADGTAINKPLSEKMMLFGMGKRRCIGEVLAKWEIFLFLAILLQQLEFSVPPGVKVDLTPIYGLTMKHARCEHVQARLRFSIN

Cytochrome P450 1A1 = molecular target: T6, Cytochrome P450 1A1 (Homo sapiens, UniProt P04798); test: as §2; assay type: ADME; settings: recombinant enzyme, 2 h
T6 sequence (P04798 whole entry): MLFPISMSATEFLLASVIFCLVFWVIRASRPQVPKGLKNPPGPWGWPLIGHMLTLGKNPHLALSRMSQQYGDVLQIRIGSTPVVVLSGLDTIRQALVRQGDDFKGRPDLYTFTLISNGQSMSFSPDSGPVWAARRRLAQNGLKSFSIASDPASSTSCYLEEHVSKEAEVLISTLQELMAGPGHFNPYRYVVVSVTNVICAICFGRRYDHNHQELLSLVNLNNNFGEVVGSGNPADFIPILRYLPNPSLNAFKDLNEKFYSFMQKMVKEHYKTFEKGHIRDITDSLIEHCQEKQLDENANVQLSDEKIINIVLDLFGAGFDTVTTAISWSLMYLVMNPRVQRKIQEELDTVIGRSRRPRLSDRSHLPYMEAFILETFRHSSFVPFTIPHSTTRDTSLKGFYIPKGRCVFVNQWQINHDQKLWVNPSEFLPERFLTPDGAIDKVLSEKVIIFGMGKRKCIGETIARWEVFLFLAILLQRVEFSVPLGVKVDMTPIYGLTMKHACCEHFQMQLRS

[13] = Retention time of the compound by LC-MS/MS method; assay type: physicochemical
[14] = substrate: CC(C)(C)NC(=O)N[C@H](C(=O)N1C[C@H]2[C@@H]([C@H]1C(=O)NC(CC1CCC1)C(=O)C(N)=O)C2(C)C)C(C)(C)C; test: Activity of human recombinant AKR1C2 expressed in HEK293 cells assessed as (1R,2S,5S)-N-((2S,3R)-4-amino-1-cyclobutyl-3-hydroxy-4-oxobutan-2-yl)-3-((S)-2-(3-tert-butylureido)-3,3-dimethylbutanoyl)-6,6-dimethyl-3-azabicyclo[3.1.0]hexane-2-carboxamide formation after 120 mins in presence of NADPH by LC-MS/MS/FSA method; assay type: ADME, cell-based

## CC(C)(C)NC(=O)N[C@H](C(=O)N1C[C@H]2[C@@H]([C@H]1C(=O)NC(CC1CCC1)C(=O)C(N)=O)C2(C)C)C(C)(C)C (stereo in doubt) [BOCEPREVIR]
Liver cytosol [1]
  Vmax: 34.9 pmol/min
Liver cytosol [2]
  Vmax/Km: 2.8 µL/min
Liver cytosol [3]
  Km: 13 µM
Liver cytosol [4]
  Km: 12.5 µM
Liver cytosol [5]
  Vmax/Km: 2.2 µL/min
Liver cytosol [6]
  Vmax: 28.6 pmol/min

## CC(C)(C)NC(=O)N[C@H](C(=O)N1C[C@H]2[C@@H]([C@H]1C(=O)N[C@@H](CC1CCC1)C(=O)C(N)=O)C2(C)C)C(C)(C)C [BOCEPREVIR]
Liver cytosol [3]
  Km: 35.5 µM
Cytochrome P450 2B6
  Compound recovery: 56.54%
Liver microsome [7]
  Compound recovery: 0.21%
Cytochrome P450 3A5 [8]
  Compound recovery: 0.98%
Cytochrome P450 3A4 [9]
  Compound recovery: BLD
Cytochrome P450 4F3
  Compound recovery: 57.31%
Cytochrome P450 3A5 [10]
  Compound recovery: 38.77%
Cytochrome P450 3A4 [11]
  Compound recovery: 37.98%
Liver microsome [12]
  Compound recovery: 26.12%
Liver cytosol [5]
  Vmax/Km: 10.2 µL/min
Plasma
  Compound recovery: >= 50%
Cytochrome P450 2C19
  Compound recovery: 60.3%
Liver cytosol [6]
  Vmax: 0.361 pmol/min
Cytochrome P450 2D6
  Compound recovery: 57.22%
Cytochrome P450 1A2
  Compound recovery: 59.66%
Cytochrome P450 1A1
  Compound recovery: 55.46%
[13]
  Retention_time: 42.8 min

B1: Aldo-keto reductase family 1 member C2 (Homo sapiens) (protein)
chain: MDSKYQCVKLNDGHFMPVLGFGTYAPAEVPKSKALEAVKLAIEAGFHHIDSAHVYNNEEQVGLAIRSKIADGSVKREDIFYTSKLWSNSHRPELVRPALERSLKNLQLDYVDLYLIHFPVSVKPGEEVIPKDENGKILFDTVDLCATWEAMEKCKDAGLAKSIGVSNFNHRLLEMILNKPGLKYKPVCNQVECHPYFNQRKLLDFCKSKDIVLVAYSALGSHREEPWVDPNSPVLLEDPVLCALAKKHKRTPALIALRYQLQRGVVVLAKSYNEQRIRQNVQVFEFQLTSEEMKAIDGLNRNVRYLTLDIFAGPPNYPFSDEY
[14]
  Km: 52.3 µM
  Vmax: 4.07e-05 µmol/min
